Laboratory results: ChEMBL document CHEMBL4414609, “High-Affinity Alkynyl Bisubstrate Inhibitors of Nicotinamide N-Methyltransferase (NNMT)” (J Med Chem, 2019)

Key:
[1] = biological target: T1, Thiopurine S-methyltransferase (Homo sapiens, UniProt P51580); assay: Inhibition of human TPMT expressed in Escherichia coli assessed as reduction in SAH level using 6-mercaptopurine as substrate in presence of SAM incubated for 30 mins by LC-MS/MS analysis
T1 sequence (P51580 whole entry): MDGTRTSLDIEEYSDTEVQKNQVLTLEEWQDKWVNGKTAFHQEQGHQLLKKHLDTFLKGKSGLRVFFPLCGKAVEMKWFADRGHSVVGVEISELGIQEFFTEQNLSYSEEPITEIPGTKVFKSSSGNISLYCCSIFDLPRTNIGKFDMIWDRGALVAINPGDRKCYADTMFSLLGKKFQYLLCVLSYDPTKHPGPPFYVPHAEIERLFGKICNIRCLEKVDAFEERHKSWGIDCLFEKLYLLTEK

[2] = biological target: T2, Histone-lysine N-methyltransferase EHMT2 (Homo sapiens, UniProt Q96KQ7); assay: Inhibition of human G9a expressed in Escherichia coli assessed as reduction in methylated histone H3 full length using histone H3 full length level as substrate in presence of [3H] SAM incubated for 120 mins by scintillation counting
T2 sequence (Q96KQ7 whole entry): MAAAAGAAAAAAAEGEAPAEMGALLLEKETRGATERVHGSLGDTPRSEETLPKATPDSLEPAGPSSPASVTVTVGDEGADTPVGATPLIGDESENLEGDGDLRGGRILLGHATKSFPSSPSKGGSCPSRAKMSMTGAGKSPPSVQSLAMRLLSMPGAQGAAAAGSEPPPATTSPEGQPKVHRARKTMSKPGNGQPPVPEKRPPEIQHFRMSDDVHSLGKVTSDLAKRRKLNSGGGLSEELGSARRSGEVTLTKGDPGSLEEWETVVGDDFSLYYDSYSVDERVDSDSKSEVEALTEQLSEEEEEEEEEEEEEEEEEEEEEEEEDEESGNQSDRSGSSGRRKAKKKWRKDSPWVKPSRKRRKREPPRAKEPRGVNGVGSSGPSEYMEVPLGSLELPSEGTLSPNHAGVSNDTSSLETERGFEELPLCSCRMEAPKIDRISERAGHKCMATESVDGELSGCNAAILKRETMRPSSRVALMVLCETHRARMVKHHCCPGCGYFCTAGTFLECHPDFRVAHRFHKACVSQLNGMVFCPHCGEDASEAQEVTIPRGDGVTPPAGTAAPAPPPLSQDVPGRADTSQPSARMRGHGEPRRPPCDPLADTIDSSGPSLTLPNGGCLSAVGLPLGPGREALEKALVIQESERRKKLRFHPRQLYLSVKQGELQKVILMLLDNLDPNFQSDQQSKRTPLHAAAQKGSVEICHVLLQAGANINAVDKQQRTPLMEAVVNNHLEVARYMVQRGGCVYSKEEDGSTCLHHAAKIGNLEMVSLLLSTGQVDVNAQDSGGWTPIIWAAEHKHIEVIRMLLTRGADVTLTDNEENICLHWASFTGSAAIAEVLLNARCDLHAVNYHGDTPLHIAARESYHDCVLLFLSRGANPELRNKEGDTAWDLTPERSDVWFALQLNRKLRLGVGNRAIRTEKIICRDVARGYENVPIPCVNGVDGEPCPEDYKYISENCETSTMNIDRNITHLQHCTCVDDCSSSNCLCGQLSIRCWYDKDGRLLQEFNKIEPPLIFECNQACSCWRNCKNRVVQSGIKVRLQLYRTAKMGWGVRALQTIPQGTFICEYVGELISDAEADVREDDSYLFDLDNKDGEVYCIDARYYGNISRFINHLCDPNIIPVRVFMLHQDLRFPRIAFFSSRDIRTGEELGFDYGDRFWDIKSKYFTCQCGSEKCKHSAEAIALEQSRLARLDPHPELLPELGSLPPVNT

[3] = biological target: T3, TPMT (thiopurine S-methyltransferase) (Homo sapiens, UniProt P51580); assay: Inhibition of human TPMT expressed in Escherichia coli assessed as reduction in SAH level at 10 uM using 6-mercaptopurine as substrate in presence of SAM incubated for 30 mins by LC-MS/MS analysis relative to control; conditions: recombinant human TPMT expressed in Escherichia coli, probe 6-mercaptopurine
T3 sequence (P51580 whole entry): T1 sequence (P51580 whole entry)

## NC(=O)c1cccc(C#C[C@@H](CC[C@H](N)C(=O)O)C[C@H]2O[C@@H](n3cnc4c(N)ncnc43)[C@H](O)[C@@H]2O)c1
[1]
  IC50: 1000 nM
[2]
  IC50: > 10000 nM
[3]
  inhibition at 0.5 h, 10 µM: 76%
